Laboratory results from patent publication US10829481B2, “Benzimidazole derivatives as modulators of ROR-gamma” (Vitae Pharmaceuticals, LLC, priority 2016, dated 2020).

Legend:
[1] = target: full-length RORγt in Jurkat cells (Homo sapiens (Human), UniProt P51449); assay: RORγt 5×RORE Assay in Jurkat Cells (Assay 2); assay type: cell-based; settings: 5×RORE Nanoluc luciferase reporter
Protocol: RORγt 5×RORE Assay in Jurkat Cells (Assay 2)
Compounds described herein were tested for RORγ inverse agonist activity in a cell-based, transcriptional activity assay. Secreted Nanoluc® luciferase was used as a reporter for transcriptional activity of the full-length RORγt in Jurkat cells (ATCC, Cat. #TIB-152). […] (Promega, Cat. #N1021) using KpnI and HindIII restriction sites. […] After 5-6 hrs of incubation at 37° C./5% CO2, the cells were collected, resuspended in phenol-red free RPMI media containing 10% (v/v) delipidated FBS (Hyclone, Cat. #SH30855.03) and dispensed into 96-well clear bottom tissue culture plates (CoStar, Cat. #3603), at 80,000 cells per well. Tested compounds were added to the cells in the same media (final concentration of DMSO was 0.1% (v/v)), and the plates were incubated at 37° C./5% CO2 for 16-18 hrs. Luciferase activity in the conditioned supernatants was determined with NanoGlo® assay reagents (Promega, Cat. #N1130).

[2] = target: recombinant RORγ Ligand Binding Domain (LBD) protein (Homo sapiens (Human), UniProt P51449); assay: Radio-Ligand RORγ Binding Assay (Assay 1); settings: competition with 25-hydroxy [26,27-3H]-cholesterol, SPA
Protocol: Radio-Ligand RORγ Binding Assay (Assay 1)
Compounds described herein were tested for ability to bind to RORγ in a cell-free competition assay with commercially available radio-ligand (RL), 25-hydroxy [26,27-^3H]-cholesterol (PerkinElmer, Cat. #NET674250UC), for a ligand binding site on a recombinant RORγ Ligand Binding Domain (LBD) protein expressed as a 6×His-Glutathione-S-Transferase (GST) fusion. The assay was performed in 96-well SPA plates (PerkinElmer, Cat. #1450-401) in 50 mM HEPES buffer, pH 7.4, containing 150 mM NaCl, 5 mM MgCl2, 10% (v/v) glycerol, 2 mM CHAPS, 0.5 mM β-octylglucopyranoside and 5 mM DTT. Tested compounds were dissolved in DMSO, and semi-log (3.162×) serial dilutions of the compounds were prepared in the same solvent. Two μL of the DMSO solutions were mixed with 28 μL of 8.6 nM 25-hydroxy [26,27-^3H]-cholesterol and 50 μL of 24 nM RORγ LBD. The plate was shaken at 700 rpm for 20 min and incubated for 10 min at rt, after which 40 μL of poly-Lys YSi SPA beads (PerkinElmer, Cat. #RPNQ0010) were added to achieve […] of the beads per well. The plate was incubated on an orbital shaker for 20 min and then for 10 min without agitation at rt. SPA signal for tritium beta radiation was registered on PerkinElmer Microbeta plate reader. […] The percent inhibition vs. concentration data were fit into a four-parameter model, and IC50 values were calculated from the fit as the concentrations corresponding to the inflection points on the dose-response curves. Inhibitory constants (Ki) were calculated using the following equation, where [RL] is the concentration in the assay and KD is a dissociation constant of 25-hydroxy [26,27-^3H]-cholesterol: […]

Sequence of full-length RORγt in Jurkat cells (P51449 other isoform, or with tags, fused parts or gaps): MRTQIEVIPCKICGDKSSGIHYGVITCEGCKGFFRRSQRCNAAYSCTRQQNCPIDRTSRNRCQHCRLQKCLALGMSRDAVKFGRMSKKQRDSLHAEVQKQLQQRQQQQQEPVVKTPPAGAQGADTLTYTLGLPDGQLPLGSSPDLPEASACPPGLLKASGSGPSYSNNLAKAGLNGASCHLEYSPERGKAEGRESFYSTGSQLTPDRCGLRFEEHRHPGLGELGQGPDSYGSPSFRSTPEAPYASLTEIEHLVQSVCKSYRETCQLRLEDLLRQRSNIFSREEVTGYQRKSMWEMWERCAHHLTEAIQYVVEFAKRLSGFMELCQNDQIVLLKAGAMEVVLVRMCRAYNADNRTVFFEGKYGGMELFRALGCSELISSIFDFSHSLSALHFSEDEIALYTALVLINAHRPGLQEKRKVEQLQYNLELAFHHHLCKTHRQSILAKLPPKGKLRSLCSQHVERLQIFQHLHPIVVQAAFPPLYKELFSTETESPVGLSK
Sequence of recombinant RORγ Ligand Binding Domain (LBD) protein (P51449 269-508): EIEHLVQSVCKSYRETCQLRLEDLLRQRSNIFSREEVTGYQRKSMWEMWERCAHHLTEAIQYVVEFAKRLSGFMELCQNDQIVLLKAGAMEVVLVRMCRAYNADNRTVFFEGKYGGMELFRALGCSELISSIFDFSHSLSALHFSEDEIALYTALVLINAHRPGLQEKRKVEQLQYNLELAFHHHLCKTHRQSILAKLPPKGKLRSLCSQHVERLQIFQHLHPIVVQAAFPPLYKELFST

IC50 [1]	Ki [2]	Compound
< 0.1 µM	< 0.1 µM	CCS(=O)(=O)c1ccc(CNC(=O)c2ccc3c(c2)nc(C2(F)CCC2)n3Cc2cccc3c2OC(F)(F)O3)nc1 [I-69, 1-((2,2-difluorobenzo[d][1,3]dioxol-4-yl)methyl)-N-((5-(ethylsulfonyl)pyridin-2-yl)methyl)-2-(1-fluorocyclobutyl)-1H-benzo[d]imidazole-5-carboxamide]
< 0.1 µM	< 0.1 µM	CCS(=O)(=O)c1ccc(CNC(=O)c2ccc3c(c2)nc(C2CC2)n3[C@@H](C)c2cccc3c2OC(F)(F)O3)cc1 [I-116, (S)-2-cyclopropyl-1-(1-(2,2-difluorobenzo[d][1,3]dioxol-4-yl)ethyl)-N-(4-(ethylsulfonyl)benzyl)-1H-benzo[d]imidazole-5-carboxamide]
< 0.1 µM	< 0.1 µM	CCS(=O)(=O)c1ccc(CNC(=O)c2ccc3c(c2)nc(C2CC2)n3Cc2cccc3c2OC(F)(F)O3)cc1 [I-26, 2-cyclopropyl-1-((2,2-difluorobenzo[d][1,3]dioxol-4-yl)methyl)-N-(4-(ethylsulfonyl)benzyl)-1H-benzo[d]imidazole-5-carboxamide]
< 0.1 µM	< 0.1 µM	CCS(=O)(=O)c1ccc(CNC(=O)c2ccc3c(c2)nc(C2CC2)n3Cc2cc(OC)cc(OC(F)(F)F)c2)cc1 [I-115, 2-cyclopropyl-N-(4-(ethylsulfonyl)benzyl)-1-(3-methoxy-5-(trifluoromethoxy)benzyl)-1H-benzo[d]imidazole-5-carboxamide]
< 0.1 µM	< 0.1 µM	CCc1nc2cc(C(=O)NCc3ccc(S(=O)(=O)CC)cc3)ccc2n1[C@H](C)c1cccc2c1OC(F)(F)O2 [I-125.2, (R)-1-(1-(2,2-difluorobenzo[d][1,3]dioxol-4-yl)ethyl)-2-ethyl-N-(4-(ethylsulfonyl)benzyl)-1H-benzo[d]imidazole-5-carboxamide]
0.1 to 1 µM	< 0.1 µM	CCS(=O)(=O)c1ccc([C@H](CO)NC(=O)c2ccc3c(c2)nc(C(F)(F)F)n3Cc2cccc3c2OCC3)cc1 [I-80, (R)-1-((2,3-dihydrobenzofuran-7-yl)methyl)-N-(1-(4-(ethylsulfonyl)phenyl)-2-hydroxyethyl)-2-(trifluoromethyl)-1H-benzo[d]imidazole-5-carboxamide]
0.1 to 1 µM	< 0.1 µM	CCS(=O)(=O)c1ccc(CNC(=O)c2ccc3c(c2)nc(C(F)(F)F)n3Cc2cccc3ocnc23)cc1 [I-147, 1-(benzo[d]oxazol-4-ylmethyl)-N-(4-(ethylsulfonyl)benzyl)-2-(trifluoromethyl)-1H-benzo[d]imidazole-5-carboxamide]
< 0.1 µM	< 0.1 µM	CCS(=O)(=O)c1ccc(CNC(=O)c2ccc3c(c2)nc(C2CCC2)n3Cc2cccc3c2OC(F)(F)O3)nc1 [I-65, 2-cyclobutyl-1-((2,2-difluorobenzo[d][1,3]dioxol-4-yl)methyl)-N-((5-(ethylsulfonyl)pyridin-2-yl)methyl)-1H-benzo[d]imidazole-5-carboxamide]
< 0.1 µM	< 0.1 µM	CCS(=O)(=O)c1ccc([C@H](COC)NC(=O)c2ccc3c(c2)nc(C(F)(F)F)n3Cc2cccc3c2OC(F)(F)O3)nc1 [I-62, (R)-1-((2,2-difluorobenzo[d][1,3]dioxol-4-yl)methyl)-N-(1-(5-(ethylsulfonyl)pyridin-2-yl)-2-methoxyethyl)-2-(trifluoromethyl)-1H-benzo[d]imidazole-5-carboxamide]
< 0.1 µM	< 0.1 µM	O=C(NCC1CCN(S(=O)(=O)CCO)CC1)c1ccc2c(c1)nc(C(F)(F)F)n2Cc1cccc2c1OC(F)(F)O2 [I-163, 1-((2,2-difluorobenzo[d][1,3]dioxol-4-yl)methyl)-N-((1-((2-hydroxyethyl)sulfonyl)piperidin-4-yl)methyl)-2-(trifluoromethyl)-1H-benzo[d]imidazole-5-carboxamide]
< 0.1 µM	< 0.1 µM	CS(=O)(=O)c1ccc([C@@H](CO)NC(=O)c2ccc3c(c2)nc(C(F)(F)F)n3Cc2cccc3c2OC(F)(F)O3)cc1 [I-20.2, (S)-1-((2,2-difluorobenzo[d][1,3]dioxol-4-yl)methyl)-N-(2-hydroxy-1-(4-(methylsulfonyl)phenyl)ethyl)-2-(trifluoromethyl)-1H-benzo[d]imidazole-5-carboxamide]
< 0.1 µM	< 0.1 µM	CCS(=O)(=O)c1ccc(CNC(=O)c2ccc3c(c2)nc(C(F)(F)F)n3Cc2cccc3ncoc23)cc1 [I-152, 1-(benzo[d]oxazol-7-ylmethyl)-N-(4-(ethylsulfonyl)benzyl)-2-(trifluoromethyl)-1H-benzo[d]imidazole-5-carboxamide]
< 0.1 µM	< 0.1 µM	N#Cc1ccc([C@H](CO)NC(=O)c2ccc3c(c2)nc(C(F)(F)F)n3Cc2cccc3c2OC(F)(F)O3)cc1 [I-122, (R)-N-(1-(4-cyanophenyl)-2-hydroxyethyl)-1-((2,2-difluorobenzo[d][1,3]dioxol-4-yl)methyl)-2-(trifluoromethyl)-1H-benzo[d]imidazole-5-carboxamide]
< 0.1 µM	< 0.1 µM	CCS(=O)(=O)c1ccc(CNC(=O)c2ccc3c(c2)nc(C(F)(F)F)n3Cc2cccc(OC)c2)cc1 [I-88, N-(4-(ethylsulfonyl)benzyl)-1-(3-methoxybenzyl)-2-(trifluoromethyl)-1H-benzo[d]imidazole-5-carboxamide]
> 1 µM	< 0.1 µM	CCc1nc2cc(C(=O)NCc3ccc(S(=O)(=O)CC)cc3)ccc2n1[C@@H](C)c1cccc2c1OC(F)(F)O2 [I-125.1, (S)-1-(1-(2,2-difluorobenzo[d][1,3]dioxol-4-yl)ethyl)-2-ethyl-N-(4-(ethylsulfonyl)benzyl)-1H-benzo[d]imidazole-5-carboxamide]
< 0.1 µM	< 0.1 µM	COC(=O)C(NC(=O)c1ccc2c(c1)nc(C(F)(F)F)n2Cc1cccc2c1OC(F)(F)O2)C1CCN(S(C)(=O)=O)CC1 (centres unmarked) [I-76, methyl 2-(1-((2,2-difluorobenzo[d][1,3]dioxol-4-yl)methyl)-2-(trifluoromethyl)-1H-benzo[d]imidazole-5-carboxamido)-2-(1-(methylsulfonyl)piperidin-4-yl)acetate]
0.1 to 1 µM	< 0.1 µM	CCS(=O)(=O)c1ccc(CNC(=O)c2ccc3c(c2)nc(C(F)(F)F)n3Cc2ccc(OC)c(C#N)c2)cc1 [I-83, 1-(3-cyano-4-methoxybenzyl)-N-(4-(ethylsulfonyl)benzyl)-2-(trifluoromethyl)-1H-benzo[d]imidazole-5-carboxamide]
< 0.1 µM	< 0.1 µM	CCS(=O)(=O)c1ccc(CNC(=O)c2ccc3c(c2)nc(C(F)(F)F)n3Cc2cccc3[nH]ncc23)cc1 [I-97, 1-((1H-indazol-4-yl)methyl)-N-(4-(ethylsulfonyl)benzyl)-2-(trifluoromethyl)-1H-benzo[d]imidazole-5-carboxamide]
> 1 µM	< 0.1 µM	CCS(=O)(=O)c1ccc(CNC(=O)c2ccc3c(c2)nc(C(F)(F)F)n3Cc2cc(OC)cc(OC)c2)nc1 [I-128, 1-(3,5-dimethoxybenzyl)-N-((5-(ethylsulfonyl)pyridin-2-yl)methyl)-2-(trifluoromethyl)-1H-benzo[d]imidazole-5-carboxamide]
< 0.1 µM	< 0.1 µM	CCS(=O)(=O)c1ccc(CNC(=O)c2ccc3c(c2)nc(C(F)(F)F)n3Cc2cccc3c2CCO3)cc1 [I-172, 1-((2,3-dihydrobenzofuran-4-yl)methyl)-N-(4-(ethylsulfonyl)benzyl)-2-(trifluoromethyl)-1H-benzo[d]imidazole-5-carboxamide]

Compound	IC50 [1]	Ki [2]
CCS(=O)(=O)c1ccc([C@H](CO)NC(=O)c2ccc3c(c2)nc(C(F)F)n3Cc2cccc3c2OC(F)(F)O3)cc1 [I-17, (R)-1-((2,2-difluorobenzo[d][1,3]dioxol-4-yl)methyl)-2-(difluoromethyl)-N-(1-(4-(ethylsulfonyl)phenyl)-2-hydroxyethyl)-1H-benzo[d]imidazole-5-carboxamide]	< 0.1 µM	< 0.1 µM
1-((2,2-difluorobenzo[d][1,3]dioxol-4-yl)methyl)-N-((R)-1-(4-(ethylsulfonyl)phenyl)-2-hydroxyethyl)-2-((R)-tetrahydrofuran-2-yl)-1H-benzo[d]imidazole-5-carboxamide [I-15]	< 0.1 µM	< 0.1 µM
